Results from paper PMC10761937, “Functional engineering of human iPSC‐derived parasympathetic neurons enhances responsiveness to gastrointestinal hormones” (FEBS Open Bio, 2023).

Key:
[1] = tested on: NPY2R; assay: cAMP accumulation assay, NPY2R‐HEK293T cells; type: cell-based, human; conditions: 0, 1, 10, 100 nM PYY, 0.5 mM IBMX, 10 μM FSK, 37 °C, 30 min, cAMP ELISA, n = 3
Procedure: HEK293T cells (Lenti‐X 293T Cell line; TaKaRa, Shiga, Japan) were maintained in Dulbecco's Modified Eagle Medium (DMEM; Fujifilm Wako Pure Chemical Industries, Osaka, Japan) supplemented with 10% fetal bovine serum (Biowest, Nuaillé, France), 1% non‐essential amino acids (NEAA) (Fujifilm Wako Pure Chemical Industries), and 1% penicillin–streptomycin (P/S) (Fujifilm Wako Pure Chemical Industries) and cultured in non‐coated culture plates at 37 °C and in an incubator with 5% CO2. The culture medium was replaced every 2–3 days. At 80–90% confluence, the cell colonies were digested into single cells using TrypLE Express (Thermo Fisher Scientific). The resulting cells were used for lentiviral transfection and agonist experiments.
Figure S1 presents the protocol used for this experiment. Lentiviral vectors were acquired from VectorBuilder (VectorBuilder Japan, Inc., Kanagawa, Japan). The mCherry expression vector (pLV‐Puro‐EF1A‐mCherry) was used as a control. pMD2.g plasmid (Addgene plasmid# 12259; RRID: Addgene 12259, Watertown, MA, USA) and psPAX2 plasmids (Addgene plasmid# 12260; RRID: Addgene 12260) were used as packaging plasmids. To produce lentiviruses, HEK293T cells were transduced with lentiviral vectors and packaging constructs containing 2 μg of lentivirus plasmids, 1 μg of pMD2.g, and 1 μg of psPAX2 plasmids using polyethyleneimine (PEI; Polysciences Inc., Warrington, PA, USA). […]

[2] = tested on: rat nodal ganglion cells; conditions: various concentrations; ref [31], [32], [33], [34]; cited from earlier work
From the text: Previous reports indicate that rat nodal ganglion cells respond to various concentrations of hormones, including CCK, GLP1, PYY, and 5‐HT [31, 32, 33, 34]. […] However, it is noteworthy that the overexpression of these receptors in our model may not reconstruct natural expres ...

Substance | Intracellular cAMP levels (Gi function) [1] | Response of rat nodal ganglion cells [2]
PYY: PYY (4400‐v; Peptide Institute, Inc.); PYY (3–36) in Ca2+ imaging | decreased in a concentration‐dependent manner | respond
GLP1: GLP1 (4280‐v; Peptide Institute, Inc.); GLP1 (7–37) in Ca2+ imaging (HAEGTFTSDVSSYLEGQAAKEFIAWLVKGRG; Glucagon-like peptide 1(7-37); UniProt P01275 98-128, looked up) | – | respond
